Test results taken from PubChem BioAssay (NCI).
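96-well plates; 48 h exposure; 5 concentrations. Endpoints by linear interpolation between flanking doses. Not reached: highest tested concentration assigned. TGI marks complete inhibition of growth.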

Columns and labels:
Experiment in all cases: NCI-60 cell line screen, 48 h
A549 NSCLC = tested on: A549 NSCLC
SN12C renal = tested on: SN12C renal
MOLT-4 leukemia = tested on: MOLT-4 leukemia
NCI-H460 lung = tested on: NCI-H460 lung
M14 melanoma = tested on: M14 melanoma
HCT-116 colon = tested on: HCT-116 colon
HOP-62 NSCLC = tested on: HOP-62 NSCLC
NCI-H522 lung = tested on: NCI-H522 lung
HOP-92 NSCLC = tested on: HOP-92 NSCLC
MALME-3M melanoma = tested on: MALME-3M melanoma
SK-MEL-28 melanoma = tested on: SK-MEL-28 melanoma
KM12 colon = tested on: KM12 colon
SK-OV-3 ovarian = tested on: SK-OV-3 ovarian
MCF7 breast = tested on: MCF7 breast
MDA-MB-435 = tested on: MDA-MB-435
NCI/ADR-RES ovarian = tested on: NCI/ADR-RES ovarian
OVCAR-4 ovarian = tested on: OVCAR-4 ovarian
SK-MEL-5 melanoma = tested on: SK-MEL-5 melanoma
OVCAR-8 ovarian = tested on: OVCAR-8 ovarian
MDA-N = tested on: MDA-N

Structure (SMILES) | TGI (A549 NSCLC) [µM] | TGI (SN12C renal) [µM] | TGI (MOLT-4 leukemia) [µM] | TGI (NCI-H460 lung) [µM] | TGI (M14 melanoma) [µM] | TGI (HCT-116 colon) [µM] | TGI (HOP-62 NSCLC) [µM] | TGI (NCI-H522 lung) [µM] | TGI (HOP-92 NSCLC) [µM] | TGI (MALME-3M melanoma) [µM] | TGI (SK-MEL-28 melanoma) [µM] | TGI (KM12 colon) [µM] | TGI (SK-OV-3 ovarian) [µM] | TGI (MCF7 breast) [µM] | TGI (MDA-MB-435) [µM] | TGI (NCI/ADR-RES ovarian) [µM] | TGI (OVCAR-4 ovarian) [µM] | TGI (SK-MEL-5 melanoma) [µM] | TGI (OVCAR-8 ovarian) [µM] | TGI (MDA-N) [µM]
O=C1c2ccccc2S(=O)(=O)c2c1cccc2[N+](=O)[O-] | > 10 | 6.56 | 6.04 | > 10 | 3.4 | 2.63 | > 10 | 3.09 | 9 | 3.02 | 5.25 | 5.08 | > 10 | 3.31 | 3.64 | 6.55 | 4.6 | 2.46 | 5.46 | –
O=[N+]([O-])c1ccc(-c2nnc(C34CC5CC(CC(C5)C3)C4)o2)cc1 | > 100 | > 100 | > 100 | > 100 | > 100 | > 100 | > 100 | > 100 | > 100 | > 100 | > 100 | > 100 | > 100 | – | > 100 | > 100 | > 100 | > 100 | – | > 100
CCOC(=O)C(=[N+]=[N-])C(=O)C1(C(=O)OCC)CCN(C(=O)c2ccccc2)C1=O (stereo not given) | > 100 | > 100 | > 100 | > 100 | > 100 | > 100 | > 100 | > 100 | > 100 | > 100 | – | > 100 | > 100 | > 100 | – | > 100 | > 100 | > 100 | > 100 | > 100
NC(=O)N=C(N(Cc1ccccc1)Cc1ccccc1)N(Cc1ccccc1)Cc1ccccc1 | > 100 | > 100 | > 100 | > 100 | – | > 100 | > 65.8 | > 100 | > 64.8 | > 100 | > 100 | > 100 | > 100 | > 100 | > 100 | > 100 | > 75.6 | > 100 | > 100 | –
Nn1c(NNC(=O)C(=O)Nc2cc(Cl)c(Cl)cc2Cl)n[nH]c1=S | > 100 | > 100 | – | > 100 | > 100 | > 100 | > 100 | > 100 | > 100 | > 100 | > 100 | > 100 | > 100 | – | – | – | > 100 | > 100 | > 100 | –
O=C(CSc1nnc(-c2ccc(N=Cc3ccc(Cl)cc3)cc2)o1)Nc1ccc(Cl)cc1Cl | > 100 | 49 | 66 | > 100 | 36.1 | 38.1 | 74.5 | 85.9 | 50.5 | 47.5 | 74.6 | 72.4 | 76.7 | – | – | – | 88 | 63.2 | 83.7 | –
CSc1ncc2c(C#N)c3sc4ccccc4n3c(=O)c2n1 | > 100 | > 100 | > 100 | > 100 | > 100 | > 100 | > 100 | – | > 100 | > 100 | > 100 | > 100 | > 100 | > 100 | > 100 | > 100 | > 100 | > 100 | > 100 | > 100
Cc1c(/C=N/NC(=O)c2cc(Br)cc(Br)c2O)c(=O)n(-c2ccccc2)n1C | > 100 | > 100 | > 100 | > 100 | > 100 | > 100 | > 100 | > 100 | > 100 | > 100 | 49.8 | > 100 | > 100 | – | – | – | > 100 | > 100 | > 100 | –
O=C1C(Cl)=C(OCCCCl)C(=O)c2c(O)ccc(O)c21 | 14.6 | 5.1 | 1.86 | 27.2 | 2.96 | 3.91 | 22 | – | 3.28 | 3.6 | 4.48 | 29.1 | 35.9 | 3.12 | – | 24.3 | 7.14 | 3.33 | 20.9 | 2.98
O=C(CCC(NC(=O)OCc1ccccc1)C(=O)OCc1ccccc1)Nc1ccc(OCc2ccccc2)cc1 (stereo not given) | > 31.6 | > 31.6 | > 31.6 | > 31.6 | > 100 | 17.1 | > 100 | > 100 | > 31.6 | > 31.6 | > 31.6 | > 31.6 | > 31.6 | 19.9 | > 31.6 | > 31.6 | > 31.6 | > 10 | 20.2 | –
CC1=C(C(=O)O)N2C(=O)[C@@H](NC(=O)C(c3ccc(O)cc3)N3CSC(=S)N(C(C)C)C3)C2SC1 (stereo not given in full) | > 100 | > 100 | > 100 | > 100 | > 100 | > 100 | > 100 | > 100 | > 100 | > 100 | > 100 | > 100 | > 100 | – | – | – | > 100 | > 100 | > 100 | –
N#CCc1nc2ccccc2c(=O)[nH]1 | > 100 | > 100 | > 100 | > 100 | > 100 | > 100 | > 100 | – | > 100 | – | > 100 | > 100 | > 100 | > 100 | > 100 | > 100 | > 100 | > 100 | > 100 | > 100
O=S(=O)(O)c1ccc(O)c2ncc(Cl)cc12 | > 100 | > 100 | > 100 | > 100 | > 100 | > 100 | > 100 | – | > 100 | – | > 100 | > 100 | – | > 100 | > 100 | > 100 | > 100 | > 100 | > 100 | > 100
CCOC(=O)c1c(N)sc2c1C(C(=O)OCC)CC2 (stereo not given) | > 100 | > 100 | > 100 | > 100 | > 100 | > 100 | > 100 | – | > 100 | > 100 | > 100 | > 100 | – | > 100 | – | – | – | > 100 | > 100 | > 100
Cn1cnc(CCc2ccccc2)n1 | > 100 | > 100 | > 100 | > 100 | > 100 | > 100 | > 100 | > 100 | > 100 | > 100 | > 100 | > 100 | > 100 | – | – | – | > 100 | > 100 | > 100 | –
CC(C)[C@H]1CO[C@]2(C)[C@@H]3CN(Cc4ccccc4)C[C@@H]3C(=O)N12 | > 100 | > 100 | > 100 | > 100 | > 100 | > 100 | > 100 | > 100 | > 100 | > 100 | > 100 | > 100 | > 100 | – | – | – | > 100 | > 100 | > 100 | –
CCOC(=O)c1c(N2CCCC2)nsc1Nc1ccc(F)cc1 | > 100 | > 100 | 70.1 | > 100 | > 100 | > 100 | > 100 | > 100 | 95.7 | 57.5 | > 100 | > 100 | > 100 | – | > 100 | > 100 | > 100 | 34.3 | > 100 | > 100
Cc1csc(=S)n1OC(=O)NC1CCCCC1 | > 100 | > 100 | > 29.4 | > 100 | > 100 | 96.8 | > 100 | > 80.9 | > 100 | > 100 | > 69.7 | > 100 | > 100 | – | – | – | > 32.5 | > 100 | > 100 | –
NC1CC(=O)c2sc(I)cc21 (stereo not given) | > 100 | > 100 | > 100 | > 100 | > 100 | > 100 | > 100 | – | – | > 100 | > 100 | > 100 | > 100 | > 100 | > 100 | > 100 | – | > 100 | > 100 | > 100
CCOP(=O)(OCC)C1CC(O)C(=O)N1 (stereo not given) | > 100 | > 100 | > 100 | – | > 100 | > 100 | > 100 | – | – | > 100 | > 100 | > 100 | > 100 | > 100 | > 100 | > 100 | > 100 | > 100 | > 100 | > 100
O=C1C(Br)=CC2(C=C1Br)CCNC1=C2C(=O)c2ccccc2C1=O | > 100 | 19.6 | 22.7 | – | 69.3 | 17.6 | 30.7 | 14.4 | – | 33.8 | – | 23.4 | > 100 | – | – | – | – | 28.5 | 98 | –
COC(O)C(=O)c1c2c(cc3c1CC1(Cc4cc5c(cc4C1)CCC5)C3)CCC2 (stereo not given) | 32.6 | – | 33.8 | 42.7 | 31 | 20.9 | 30.2 | 36.1 | 31 | 31.2 | 35.7 | – | 31.8 | 33.9 | 6.58 | 34 | 33.9 | 31.3 | 33.6 | –
COc1cc(OC)c2c(c1)C(=O)C(CC(C)O)=CC2=O (stereo not given) | 37.1 | 32.6 | 41.8 | 40.4 | 32.9 | 25 | 33.6 | 30.9 | 23.3 | 37.3 | 31.5 | 35 | 31.9 | – | – | – | 31.9 | 28 | 29.5 | –
CC(=O)OCC1OC(OC2C(CSC3OC(COC(C)=O)C(OC(C)=O)C(OC(C)=O)C3OC(C)=O)OC(OC(C)=O)C(OC(C)=O)C2OC(C)=O)C(OC(C)=O)C(OC(C)=O)C1OC(C)=O (stereo not given) | > 100 | > 100 | > 100 | > 100 | > 100 | > 100 | > 100 | > 100 | > 100 | > 100 | > 100 | > 100 | > 100 | – | – | – | > 100 | > 100 | > 100 | –
O=C(c1cccc2ccccc12)C1(Br)S(=O)(=O)OCCOS1(=O)=O | > 100 | > 100 | > 100 | > 100 | > 100 | > 100 | > 100 | – | – | > 100 | > 100 | > 100 | – | > 100 | > 100 | > 100 | > 100 | > 100 | > 100 | > 100
COc1cc(Cn2c3ccccc3c3cc(C)c4c(c32)C=CC(C)(CCC=C(C)C)O4)cc2c1[nH]c1ccccc12 (stereo not given) | > 100 | > 100 | > 100 | > 100 | > 100 | > 100 | > 100 | > 100 | > 100 | > 100 | > 100 | > 100 | > 100 | – | – | – | > 100 | > 100 | > 100 | –
C[n+]1c2ccccc2c(C(=O)Nc2ccc(S(=O)(=O)Nc3ccnn3-c3ccccc3)cc2)c2ccccc21 | > 100 | > 100 | > 100 | > 100 | > 100 | > 100 | > 100 | – | – | > 100 | > 100 | > 100 | > 100 | > 100 | > 100 | > 100 | > 100 | > 100 | > 100 | > 100
